Experimental data reported in patent publication US4624944A, “Human seminal alpha-inhibins” (The Regents of The University of California, priority 1985, dated 1986).
Where no end group is shown, it is not given here.

Assays:
[1] = tested on: LHRH-induced FSH secretion by mouse pituitary; assay: FSH-suppressing (inhibin) activity, in vitro mouse pituitary system; assay type: cell-based; details: for ED50 (FSH-suppressing activity) / times more active than alpha-IB-31 in suppressing FSH (follitropin) release: mouse pituitaries in vitro; for ED50 (FSH-suppressing activity): LHRH-induced FSH secretion, 95% confidence limits in parenthesis; for Relative Potency (FSH-suppressing activity): relative to alpha-IB-31 = 1.0; for times more active than alpha-IB-31 in suppressing FSH (follitropin) release: text statement
Experimental: FIG. 6 is a graphical illustration of the effect of alpha-IB-31, alpha-IB-52, and alpha-IB-92 on LHRH-induced FSH secretion by mouse pituitary. Means ±SEM (n=5) are shown. On the graph solid circles represent alpha-IB-31; open circles represent alpha-IB-52; solid triangles represent alpha-IB-92.
Disc electrophoresis in polyacrylamide slab gels was performed as described by Reisfield, et al. (1962). The gels were stained with Coomassie Blue (R250). NaDodSO4 gel electrophoresis was carried out as described by Laemmli (1970). The inhibin activity was assayed by the in vitro mouse pituitary system (Yamashiro, et al., 1984; Ramasharma, et al., 1981).
FIG. 6 presents bioassay data for alpha-IB-31, alpha-IB-52 and alpha-IB-92 in suppressing the lutropin-releasing hormone (LHRH)-induced FSH secretion by using mouse pituitaries in vitro. […] The addition of 40 amino acids at the NH2 -terminus of alpha-IB-52 greatly enhance the inhibin activity.

[2] = tested on: rabbit antiserum to alpha-IB-31; assay: RIA of alpha-inhibins using rabbit antiserum to ILP (displacement of labelled [Tyr4]-alpha-IB-31); assay type: binding; details: for ED50 (RIA): rabbit antiserum to ILP; for ED50 (RIA) / Relative Potency (RIA): 95% confidence limits in parenthesis; for Relative Potency (RIA): relative to alpha-IB-31 = 1.00; for potency in displacing labelled [Tyr4]-alpha-IB-31, relative to alpha-IB-31: antiserum raised against alpha-IB-31, text statement
Experimental: Radioimmunoassay was performed with rabbit antiserum to alpha-IB-31. Amino acid analyses were performed in an automatic amino acid analyzer (Model 119C, Beckman) as described by Spackman, et al. (1958). The NH2 -terminal residue was determined by the dansyl-Edman procedure (Gray, 1967). For COOH-terminal residue analysis, carboxypeptidase Y digests were carried out in 1M pyridine acetate buffer (pH 5.5) for 4 hr at 37° C. with an enzyme-to-substrate ratio of 1:50. Trypsin digestions were performed with an enzyme-to-substrate ratio of 1:50 in 0.05M Tris/0.01 M Mg^2+, pH 8.5, at 37° C. for 4 hr.
Alpha-IB-52 and alpha-IB-92 cross-react to an antiserum raised against alpha-IB-31. They displace labelled [Tyr^4 ]-alpha-IB-31 with 60% of the potency of alpha-IB-31.

[3] = tested on: pituitary FSH secretion; details: in vitro and in vivo, Yamashiro et al. (1984); cited from earlier work

ED50 (RIA) [2]	Relative Potency (RIA) [2]	potency in displacing labelled [Tyr4]-alpha-IB-31, relative to alpha-IB-31 [2] [%]	Substance	ED50 (FSH-suppressing activity) [1]	Relative Potency (FSH-suppressing activity) [1]	suppression of pituitary FSH secretion [3]	times more active than alpha-IB-31 in suppressing FSH (follitropin) release [1] [times]	times more active than alpha-IB-31 in suppressing FSH (follitropin) release ([1]; listed as alpha-inhibin-92)
38 (29-50) fmoles	1.00		HNKQEGRDHDKSKGHFHRVVIHHKGGKAHRG [alpha-IB-31, alpha-inhibin-31, reference compound]	1.02 (0.34-2.9) pmol/ml	1.0	suppresses pituitary FSH secretion in vitro and in vivo		
65 (45-92) fmoles	0.58 (0.31-1.1)	60	HNKQEGRDHDKSKGHFHRVVIHHKGGKAHRGTQNPSQDQGNSPSGKGISSQY [alpha-IB-52, alpha-inhibin-52]	0.30 (0.18-0.52) pmol/ml	3.4		3.4	
63 (42-94) fmoles	0.60 (0.31-1.2)	60	alpha-inhibin-92 [alpha-IB-92]	0.025 (0.01-0.049) pmol/ml	40.5		40	over 40 times
